Laboratory results published in patent US20090069405A1, “TREATMENT OF CNS AND PAIN DISORDERS” (Valexfarm, Ltd., priority 2007, published 2009).

Experiments:
Assay type in all cases: in vivo
[1] = tested on: mice; assay: Tail-flick test
Description: Tail-flick test. The tail-flick test, using a radiant heat source was carried out to study antinociception. Each mouse was placed in an acrylic tube and its tail was laid across a Nichrome™ wire coil, which was heated by the passage of an electric current. The intensity of the current was kept at 5 mA. All animals were screened for the tail-flick response. Only those showing a flick within 4 sec were included in the study. After 1 h of final dosing, the mice were submitted to three tail-flick tests.

[2] = tested on: mice; assay: Hot plate test; conditions: peroral administration, 50 mg/kg, plate 55.0±0.5° C., 30 min after compound
Description: Hot plate test. Male mice weighing from 25 to 30 g were used in this test. […] The surface of the plate was maintained at a temperature of 55.0±0.5° C. […] Time (in seconds) to either hind paw licking or jumping was recorded as pain response latency. To avoid the likelihood of tolerance of mice to hot plate, all mice were exposed to hot plate only once through the whole experiment. The mice were exposed to hot plate only once; either before or after injection of drug.

[3] = tested on: mice; assay: Forced Swim Test
Description: Forced Swim Test. The test apparatus consisted of a clear plastic cylindrical tank, 35 cm high and 25 cm in diameter, which was filled to a depth of 25 cm with tap water equilibrated overnight to room temperature (24° C.). A glass plate covered the top of the tank to prevent escape while the mouse was swimming. The water in the tank was replaced by fresh water at room temperature after three mice had been tested. To habituate the mouse, it was forced to swim in the tank for 15 min., then removed and dried by toweling and a heat lamp, and returned to its cage. Twenty-four hours later, the mouse was returned to the tank and allowed to swim for 5 min. while its swimming activity was recorded by a video camera, mounted above the tank. After this, the mouse was dried and returned to its cage. End points of the test were total time spent floating in an immobile position, without paddling of limbs (swimming) (Porsolt et al. Nature (1977) 266:730-732).

[4] = tested on: mice; assay: Formalin paw test; conditions: formalin 4.5%, 20 μl, left hind paw, dose 30 mg/kg, compared to control
Description: Formalin paw test. The mice received an injection of formalin (4.5%, 20 μl) to the left hind paw. The irritation caused by the formalin injection elicits a characteristic biphasic behavioral response as quantified by the amount of time spent licking the injured paw. The first phase (˜5-10 minutes) represents direct chemical […], and the second phase (˜20-30 minutes) is thought to represent pain of neuropathic origin (Tjølsen A et al. Pain (1992) 51:5-17). The two phases are separated by a quiescent period in which behavior returns to normal. The effectiveness of test compounds to reduce the painful stimuli is assessed by counting the amount of time spent licking the injured paw in the two phases.

O=C1CNC(=O)/C1=C\NCc1ccccc1 [tetramic derivative of the invention]
analgesic effect (tail-flick) compared to phenytoin and valproate ([1]; highest dose tested 500 mg/kg, versus phenytoin 100 mg/kg and valproate 500 mg/kg): relatively better analgesic effect
analgesic effect (tail-flick) ([1]; peroral administration, 1 h after final dosing): analgesic effect
analgesic effect (pain response latency, hot plate) [2]: analgesic effect
antidepressive effect (total time spent floating immobile) ([3]; 100 mg/kg): significant antidepressive effect
reduction in pain score in the chronic phase [4]: 5%

NC(=O)N1c2ccccc2C=Cc2ccccc21 [carbamazepine]
antidepressive effect (total time spent floating immobile) ([3]; 50 mg/kg): significant effect

CCCC(CCC)C(=O)[O-].[Na+] [sodium valproate]
antidepressive effect (total time spent floating immobile) ([3]; 250 mg/kg): significant effect
